In patent US20110250133A1, “GASTRIN […] PEPTIDE COMPOUNDS” (priority 2003, published 2011):

Legend:
[1] = tested on: PC-3 prostate cancer cells; experiment: Effect of drug treatment on GRP receptor binding (177Lu-AMBA) in PC-3 cells; assay type: cell-based, human; conditions: for change in GRP receptor specific signal per cell (177Lu-AMBA binding): drug 0.1-1.0 μM (4-OH Tamoxifen 0.001-0.1 μM); for decrease in 177Lu-AMBA binding (GRP receptor specific signal per cell): drug 0.1-1.0 μM (gefitinib 0.1-10 μM)
Procedure: (§1) RPMI 1640 supplemented with 20 mM HEPES, 0.1% BSA (w/v), 0.5 mM PMSF (AEBSF), bacitracin (50 mg/500 ml), pH 7.4.
(§2) Incubations were stopped by the addition of 200 μL of ice-cold binding buffer. Plates were washed three more times with binding buffer, 140 μL of scintillation fluid was added to each well, the plates were sealed and analyzed on a Microβ plate reader (Microbeta Trilux, Perkin-Elmer).
PC-3 (human prostate adenocarcinoma, bone metastasis, AR-, ER) were obtained from the American Type Culture Collection. The growth medium for PC-3 cells is RPMI 1640 (10-041-CM, Mediatech, Inc), supplemented with 10% heat inactivated FBS (Hyclone, SH30070.03) and PSF-1× (as in Example LXVI). The binding buffer, lapatinib solutions, treatment method and cell binding assay is the same as in Example LXVI.

[2] = tested on: BT-474 human breast cancer cells; experiment: Effect of drug treatment on GRP receptor binding (177Lu-AMBA) in BT-474 cells; assay type: cell-based; conditions: for increase in 177Lu-AMBA binding (GRP receptor specific signal per cell) / decrease in 177Lu-AMBA binding (GRP receptor specific signal per cell): relative to untreated control; for increase in 177Lu-AMBA binding (GRP receptor specific signal per cell): drug 0.1-1.0 μM (β2-estradiol 1 nM); for decrease in 177Lu-AMBA binding (GRP receptor specific signal per cell): drug 0.1-1.0 μM (4-OH Tamoxifen 0.001-0.1 μM); for change in GRP receptor specific signal per cell (177Lu-AMBA binding): drug 0.1-1.0 μM (gefitinib 0.1-10 μM); for change in 177Lu-AMBA uptake (GRP-R) on a viable cell basis, BT-474: drug 0.1-1.0 μM, ↑ increase, ↓ decrease vs untreated
Procedure: BT-474 breast cancer cells (human primary invasive ductal carcinoma; ER+, PR+, amplified HER2/neu+) were obtained from the American Type Culture Collection. The growth medium for BT-474 cells is Hybri-care Medium (Cat No: 46X, ATCC) supplemented with 10% heat inactivated FBS (Hyclone, SH30070.03), 0.2% NaHCO3, and antibiotic/antimycotic “PSF-1×” (GibcoBRL, 15240-062) for a final concentration of penicillin-streptomycin (1×, 100 units/mL), and fungizone (0.25 μg/mL). […] Cells for binding experiments were plated on Day 0 at 5.6×10^4 cells/cm^2 in 96-well white/clear bottom microtiter plates (Falcon Optilux-I), or 96 well black/clear collagen I cellware plates (Beckton Dickinson Biocoat).
as §1, §2
Treatment: BT-474 cells were plated on Day 0 and treated on Days 1 and 2 (DT1, DT2).

[3] = tested on: T47D human breast cancer cells; experiment: Effect of drug treatment on GRP receptor binding (177Lu-AMBA) in T47D cells; assay type: cell-based; conditions: for increase in 177Lu-AMBA binding (GRP receptor specific signal per cell): relative to untreated control, drug 0.1-1.0 μM (gefitinib 0.1-10 μM)
Source text: T-47D breast cancer cells (human metastatic mammary gland ductal adenocarcinoma isolated from pleural effusion, ER+, PR+) were obtained from the American Type Culture Collection.

[4] = target: T1, GRP-R (Homo sapiens, UniProt P30550); experiment: Competition studies of modified BBN analogs with 125I-BBN for GRP-R in PC3 cells (Example LXI); assay type: binding
T1 construct: host or cells: PC3 (PC-3) human prostate cancer cells, intact adherent cells
T1 sequence (P30550 whole entry): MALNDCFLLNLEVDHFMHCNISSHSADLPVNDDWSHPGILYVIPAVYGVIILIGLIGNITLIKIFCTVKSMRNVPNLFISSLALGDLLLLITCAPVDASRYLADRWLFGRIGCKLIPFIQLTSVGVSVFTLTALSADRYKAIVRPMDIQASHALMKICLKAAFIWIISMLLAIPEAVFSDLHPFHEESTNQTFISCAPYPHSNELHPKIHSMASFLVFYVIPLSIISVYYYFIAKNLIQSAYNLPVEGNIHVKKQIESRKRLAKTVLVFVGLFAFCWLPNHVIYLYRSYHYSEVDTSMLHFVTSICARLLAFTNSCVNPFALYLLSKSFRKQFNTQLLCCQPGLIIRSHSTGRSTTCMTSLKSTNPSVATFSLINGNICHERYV
Procedure: PC3 cell lines were obtained from ATCC(CRL-1435) and cultured in RPMI 1640 (ATCC) supplemented with 2 mM L-glutamine, 1.5 g/L Sodium bicarbonate, 10 mM HEPES and 10% FBS. […] PC3 cells for the assays were plated at a concentration of 2.0×10^4 cells/well in a 96-well white/clear bottom plates (Falcon Optilux-I). Plates were used for the assays on day 2 of the post-plating.
^125I-BBN (Cat # NEX258) was obtained from PerkinElmer Life Sciences.
All compounds tested were dissolved in binding buffer and appropriate dilutions were also done in binding buffer. PC3 cells for assay were seeded at a concentration of 2.0×10^4/well either in 96-well black/clear collagen I cellware plates (Beckton Dickinson Biocoat). Plates were used for binding studies on day 2 post-plating. The plates were checked for confluency (>90% confluent) prior to assay. […] The studies were conducted with an assay volume of 75 μL per well. Triplicate wells were used for each data point. After the addition of the appropriate solutions, plates were incubated for 1 hour at 4° C. Incubation was ended by the addition of 200 μL of ice-cold incubation buffer. Plates were washed 5 times and blotted dry. Radioactivity was detected using either a LKB CompuGamma counter or a microplate scintillation counter.

[5] = target: T2, NMB-R (Rattus norvegicus, UniProt P24053); experiment: Competition with 125I-NMB for NMB-R in C6 cells (linker specificity); assay type: binding, rodent; conditions: for receptor subtype preference (GRP-R vs NMB-R): from IC50 with 125I-NMB (C6) and 125I-BBN (PC3), cut off 10x the IC50 of [Tyr4]-BBN;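 as to all read-outs here: test cells: rodent glioblastoma C6 line carrying NMB-R, human prostate cancer PC3 line carrying GRP-R, affinity fitted by one-site competition nonlinear regression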
T2 construct: C6, an NMB-R expressing rodent glioblastoma cell line; host or cells: C6 glioblastoma cells, intact adherent cells
T2 sequence (P24053 1-390): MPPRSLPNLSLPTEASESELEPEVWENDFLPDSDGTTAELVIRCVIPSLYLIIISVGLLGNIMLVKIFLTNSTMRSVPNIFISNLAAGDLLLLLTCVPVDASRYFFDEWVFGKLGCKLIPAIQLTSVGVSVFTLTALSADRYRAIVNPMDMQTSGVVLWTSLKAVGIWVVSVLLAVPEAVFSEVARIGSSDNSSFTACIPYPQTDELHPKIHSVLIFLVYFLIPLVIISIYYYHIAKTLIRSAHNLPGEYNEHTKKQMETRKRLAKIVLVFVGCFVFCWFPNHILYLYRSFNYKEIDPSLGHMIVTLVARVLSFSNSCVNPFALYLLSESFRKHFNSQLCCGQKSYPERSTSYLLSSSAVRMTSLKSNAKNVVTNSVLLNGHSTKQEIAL
Procedure: Two cell lines, C6, an NMB-R expressing rodent glioblastoma cell line and PC3, a GRP-R expressing human prostate cancer cell line, were used in this assay. The affinity of various unlabeled compounds for each receptor subtype (NMB-R and GRP-R) was determined indirectly by measuring its ability to compete with the binding of ^125I-NMB or ^125I-BBN to its corresponding receptors in C6 and PC3 cells.
Cells for the assays were plated at a concentration of 9.6×10^4/well in 48 well poly-lysine coated plates (Beckton Dickinson Biocoat). PC3 were obtained from ATCC(CRL-1435) and cultured in RPMI 1640 (ATCC) supplemented with 2 mM L-glutamine, 1.5 g/L Sodium bicarbonate, 10 mM HEPES and 10% FBS. […] PC3 cells for the assays were plated at a concentration of 2.0×10^4 cells/well in 96-well white/clear bottom plates (Falcon Optilux-I). Plates were used for the assays on day 2 of the post-plating.
RPMI 1640 (ATCC) containing 25 mM HEPES, 0.2% BSA fraction V, 1.0 mM AEBSF (CAS # 3087-99-7) and 0.1% Bacitracin (CAS # 1405-87-4), pH 7.4. Custom made ^125I-[Tyr^0]NMB, >2.0 Ci/μmole (Amersham Life Science) [^125I-NMB] and commercially available ^125I-[Tyr^4]BBN, >2.0 Ci/μmole (Perkin Elmer Life Science) [^125I-BBN] were used as radioligands.
Using a 48-well plate assay system (for C6 study) competition experiments were performed using ^125I-NMB. […] Selection of compounds for the assay was based on linker subtype.
The binding parameters obtained from the studies were analyzed using a one-site competition non-linear regression analysis with GraphPad Prism. The relative affinity of various compounds for NMB-R in C6 cells were compared with those obtained using commercially available [Tyr^4]-BBN and [Tyr^0]-NMB. To distinguish the GRP-R preferring compounds from NMB-R plus GRP-R preferring compounds, IC50 values obtained for each compound were compared with those obtained from [Tyr^4-BBN with ^125I-NMB on C6 cells.

[6] = yes / —, cut off 10x the IC50 of [Tyr4]-BBN with 125I-NMB on C6 cells
[7] = PC-3, relative to untreated control
[8] = drug 0.1-1.0 μM, ↑ increase, ↓ decrease vs untreated

C[C@]12CC[C@@H]3c4ccc(O)cc4CC[C@H]3[C@@H]1CC[C@@H]2O [β2-estradiol]
change in GRP receptor specific signal per cell (177Lu-AMBA binding) ([1]; PC-3): no change | change in 177Lu-AMBA binding (GRP receptor specific signal per cell) vs untreated controls, PC-3 ([1]; Table 25, range 0.001-0.1 μM): 0% | increase in 177Lu-AMBA binding (GRP receptor specific signal per cell) ([2]; BT-474): 47% | change in 177Lu-AMBA binding (GRP receptor specific signal per cell) vs untreated controls, BT-474 ([2]; Table 25, range 0.001-0.1 μM): 47% | change in GRP receptor specific signal per cell (177Lu-AMBA binding) ([3]; T-47D): did not change | change in 177Lu-AMBA binding (GRP receptor specific signal per cell) vs untreated controls, T47D ([3]; Table 25, range 0.001-0.1 μM): 0%

sunitinib
increase in 177Lu-AMBA binding (GRP receptor specific signal per cell) ([1]; PC-3, relative to untreated control, drug 0.1-1.0 μM): up to 10% | decrease in 177Lu-AMBA binding (GRP receptor specific signal per cell) ([2]; BT-474): up to 8% | increase in 177Lu-AMBA binding (GRP receptor specific signal per cell) ([3]; T-47D): up to 13%

N-[(3β,5β,12α)-3-[[[4,7,10-Tris(carboxymethyl)-1,4,7,10-tetraazacyclododec-1-yl]acetyl]amino]-glycyl-4-aminobenzoyl-L-glutaminyl-L-tryptophyl-L-alanyl-L-valyl-glycyl-L-histidyl-L-phenylalanyl-L-methioninamide [Compound L228]
competition at the GRP-R [4]: maintains GRP-R activity

Gln-Trp-Ala-Val-Gly-His-Leu-Met-NH2 [BBN7-14]
receptor subtype preference (GRP-R vs NMB-R) [5]: did not show any preference | receptor preference in words (GRP-R / GRP-R and NMB-R) ([5]; wrapped cell: 'No selective preference' or 'preference for NMB-R'): No selective

DO3A-monoamide-Aoc-QWAVGHL-Nle-NH2
receptor subtype preference (GRP-R vs NMB-R) [5]: dual affinity for both GRP-R and NMB-R | GRP-R and NMB-R (binds both) [5, 6]: Yes

DO3A-monoamide-Apa3-QWAVGHLM-NH2
receptor subtype preference (GRP-R vs NMB-R) [5]: dual affinity for both GRP-R and NMB-R | GRP-R and NMB-R (binds both) [5, 6]: yes

DO3A-monoamide-Nal1-Bpa4-QWAVGHLM-NH2
receptor subtype preference (GRP-R vs NMB-R) [5]: selective affinity towards GRP-R | GRP-R (GRP-R preferring) [5, 6]: yes

DO3A-monoamide-Abu4-QWAVGHLM-NH2
receptor subtype preference (GRP-R vs NMB-R) [5]: dual affinity for both GRP-R and NMB-R | GRP-R and NMB-R (binds both) [5, 6]: yes

imatinib
decrease in 177Lu-AMBA binding (GRP receptor specific signal per cell) [1, 7]: 15-25% | change in GRP receptor specific signal per cell (177Lu-AMBA binding) ([2]; BT-474): no change | change in 177Lu-AMBA uptake (GRP-R) on a viable cell basis, BT-474 [2]: NC (NC: Little(<10%) or no change in Lu-AMBA uptake) | increase in 177Lu-AMBA binding (GRP receptor specific signal per cell) ([3]; T-47D): up to 15%

lapatinib
change in proliferation ([1]; PC-3, 0.1-1.0 μM): no change | change in GRP receptor specific signal per cell (177Lu-AMBA binding) ([1]; PC-3): no change | change in 177Lu-AMBA uptake (GRP-R) on a viable cell basis, PC-3 [1, 8]: NC (NC: Little(<10%) or no change in Lu-AMBA uptake) | decrease in cell proliferation ([2]; BT-474, highest concentration): ≤ 65% | increase in 177Lu-AMBA binding (GRP receptor specific signal per cell) ([2]; BT-474): up to 140% | decrease in cell proliferation ([3]; T-47D, highest concentration): ≤ 35% | increase in 177Lu-AMBA binding (GRP receptor specific signal per cell) ([3]; T-47D): up to 50%

erlotinib
decrease in 177Lu-AMBA binding (GRP receptor specific signal per cell) [1, 7]: 5-20% | change in GRP receptor specific signal per cell (177Lu-AMBA binding) ([2]; BT-474): no change | change in 177Lu-AMBA uptake (GRP-R) on a viable cell basis, BT-474 [2]: NC (NC: Little(<10%) or no change in Lu-AMBA uptake) | increase in 177Lu-AMBA binding (GRP receptor specific signal per cell) ([3]; T-47D): 5-20%

sorafenib
decrease in 177Lu-AMBA binding (GRP receptor specific signal per cell) [1, 7]: 10-20% | decrease in 177Lu-AMBA binding (GRP receptor specific signal per cell) ([2]; BT-474): 10-25% | change in GRP receptor specific signal per cell (177Lu-AMBA binding) ([3]; T-47D): no change | change in 177Lu-AMBA uptake (GRP-R) on a viable cell basis, T47D [3, 8]: NC (NC: Little(<10%) or no change in Lu-AMBA uptake)
